According to patent publication US20090326037A1 (priority 2005, published 2009):
Several values for one entry are separate records, joined by “and”; a condition that tells them apart may be missing. Identical values can stand only once. Like-named read-outs stand apart in the source and are kept apart here.

Tests used:
[1] = system: influenza A/Singapore/1/57 virus; assay: microbe, parasite or virus in culture; format: cell-based; conditions: for Percent of inhibition of OD 490: two values: A series
[2] = system: avian influenza virus (H5N1); format: in vivo, white mice; conditions: Oseltamivir 2.5 mg/kg alone (Arbidol 0 mg/kg), orally
[3] = system: influenza virus H3N2; format: in vivo, mice
[4] = system: influenza virus A/PR/8/34; format: cell-based; conditions: influenza virus A/PR/8/34, MDCK cells; concentration not given
[5] = Toxicity (lethal effect, LD50) in rats; format: in vivo
Experimental: (§1) Determination of toxicity of 1-methyl-2-phenylthiomethyl-3-carbethoxy-5-oxy-6-bromindol sulfon as compared with arbidol.
(§2) The administration of the preparations was carried out endogastrically, the period of observation of the animals was 14 days.

[6] = Toxicity (lethal effect, LD50) in mice; format: in vivo
Experimental: as §1, §2

[7] = Dose 100 mg/kg, endogastrically, observation 14 days
[8] = Dose 250 mg/kg, endogastrically, observation 14 days
[9] = Dose 500 mg/kg, endogastrically, observation 14 days
[10] = Dose 1000 mg/kg, endogastrically, observation 14 days
[11] = Dose 3000 mg/kg, endogastrically, observation 14 days
[12] = Dose 5000 mg/kg, endogastrically, observation 14 days
[13] = Dose 7500 mg/kg, endogastrically, observation 14 days
[14] = Influenza A virus, MDCK, read-out: percent of inhibition of viral reproduction

CCOC(=O)C1=C[C@@H](OC(CC)CC)[C@H](NC(C)=O)[C@@H](N)C1 [Oseltamivir]
Percent of inhibition of OD 490 ([1]; Oseltamivir 0.4 μg alone (A or C 0 μg/ml), C series, added 2 hours after infection): 36% and 18%
Percent of inhibition of OD 490 ([1]; Oseltamivir 4.1 μg alone (A or C 0 μg/ml), C series, added 2 hours after infection): 37% and 20%
Percent of inhibition of OD 490 ([1]; Oseltamivir 12.3 μg alone (A or C 0 μg/ml), C series, added 2 hours after infection): 48% and 34%
Percent of inhibition of OD 490 ([1]; Oseltamivir 41 μg alone (A or C 0 μg/ml), C series, added 2 hours after infection): 52% and 36%
suppression of reproduction ([1]; ten times greater amount (than 3.3 mg) of zanamivir or oseltamivir without the addition of arbidol): 50%
Surviving mice, % [2]: 60%

CCOC(=O)c1c(CS(=O)(=O)c2ccccc2)n(C)c2cc(Br)c(O)cc12 [Sulfon, 1-methyl-2-phenylthiomethyl-3-carbethoxy-5-oxy-6-bromindol sulfon]
Percent of surviving mice ([3]; Concentration 15): 90%
Percent of surviving mice ([3]; Concentration 30): 70%
Percent of surviving mice ([3]; Concentration 100): 40% and 50% and 60%
antiviral action in vivo as compared with arbidol ([3]; mouse, in vivo): comparable with the action of arbidol
Percent of suppression of virus reproduction [4]: 75%
Lethal effect upon administration to rats [5, 7]: 0/6
Lethal effect upon administration to rats [5, 8]: 0/6
Lethal effect upon administration to rats [5, 9]: 0/6
Lethal effect upon administration to rats [5, 10]: 0/6
Lethal effect upon administration to rats [5, 11]: 2/6
Lethal effect upon administration to rats [5, 12]: 4/6
Lethal effect upon administration to rats [5, 13]: 6/6
LD50 at 14 days ([5]; rat, in vivo, oral, rats, endogastrically, observation 14 days): 5350 ± 250 mg/kg
LD50 relative to arbidol ([5]; rats, sulfon LD50 versus arbidol LD50): 3 times
Lethal effect upon administration to mice [6, 7]: 0/6
Lethal effect upon administration to mice [6, 8]: 0/6
Lethal effect upon administration to mice [6, 9]: 0/6
Lethal effect upon administration to mice [6, 10]: 0/6
Lethal effect upon administration to mice [6, 11]: 2/6
Lethal effect upon administration to mice [6, 12]: 4/6
Lethal effect upon administration to mice [6, 13]: 6/6
toxicity as compared with arbidol ([6]; Table 5 (mice and rats), endogastrically): significantly less toxic than arbidol
LD50 relative to arbidol ([6]; mice, sulfon LD50 versus arbidol LD50): 4 times
LD50 at 14 days ([6]; mouse, in vivo, oral, mice, endogastrically, observation 14 days): 3600 ± 180 mg/kg

NC12CC3CC(CC(C3)C1)C2 [Amantadin]
Percent of inhibition of OD 490 ([1]; Amantadin 5 μg/ml alone (A or D 0 μg/ml), D series, added 30 min prior to infection): 50% and 30%
Percent of inhibition of OD 490 ([1]; Amantadin 10 μg/ml alone (A or D 0 μg/ml), D series, added 30 min prior to infection): 56% and 38%

NC(=O)c1ncn([C@@H]2O[C@H](CO)[C@@H](O)[C@H]2O)n1 [Ribavirin]
inhibition at 1 µg/mL [1, 14]: 5%
inhibition at 3 µg/mL [1, 14]: 25%
inhibition at 10 µg/mL [1, 14]: 30%
inhibition at 15 µg/mL [1, 14]: 38%
